# Measured values published in patent US20070219186A1, “Pyrazolo[1,5-A]pyrimidine derivatives and methods of use thereof” (priority 2006, published 2007).
# Read-outs that look alike come from different tables or passages of the source.
# Molecular target: T1, human B-Raf (Homo sapiens, UniProt P15056)
# T1 construct: Flag; GST; made in house; host or cells: Sf9 insect cells (B-Raf); E. coli (MEK1-GST)
# Assay: B-Raf Kinase to MEK1 ELISA
# Format: biochemical
# Details: for inhibition at 10 µM: read-out: % Inhib./10 uM
# In short: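 Read-out is a DELFIA europium signal from phospho-MEK1 (Ser217/221) antibody after capture of GST-MEK1 (50 nM final) on anti-GST plates. Phosphorylation comes from Sf9-expressed Flag/GST human B-Raf (~20 ng) with ATP/MgCl2, 60 min RT, pH 7.2 MOPS.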
# [1] = median, cpd concentrations from 10 μM to 30 nM in half log dilutions, read-out: Median IC50
# T1 sequence (P15056 whole entry): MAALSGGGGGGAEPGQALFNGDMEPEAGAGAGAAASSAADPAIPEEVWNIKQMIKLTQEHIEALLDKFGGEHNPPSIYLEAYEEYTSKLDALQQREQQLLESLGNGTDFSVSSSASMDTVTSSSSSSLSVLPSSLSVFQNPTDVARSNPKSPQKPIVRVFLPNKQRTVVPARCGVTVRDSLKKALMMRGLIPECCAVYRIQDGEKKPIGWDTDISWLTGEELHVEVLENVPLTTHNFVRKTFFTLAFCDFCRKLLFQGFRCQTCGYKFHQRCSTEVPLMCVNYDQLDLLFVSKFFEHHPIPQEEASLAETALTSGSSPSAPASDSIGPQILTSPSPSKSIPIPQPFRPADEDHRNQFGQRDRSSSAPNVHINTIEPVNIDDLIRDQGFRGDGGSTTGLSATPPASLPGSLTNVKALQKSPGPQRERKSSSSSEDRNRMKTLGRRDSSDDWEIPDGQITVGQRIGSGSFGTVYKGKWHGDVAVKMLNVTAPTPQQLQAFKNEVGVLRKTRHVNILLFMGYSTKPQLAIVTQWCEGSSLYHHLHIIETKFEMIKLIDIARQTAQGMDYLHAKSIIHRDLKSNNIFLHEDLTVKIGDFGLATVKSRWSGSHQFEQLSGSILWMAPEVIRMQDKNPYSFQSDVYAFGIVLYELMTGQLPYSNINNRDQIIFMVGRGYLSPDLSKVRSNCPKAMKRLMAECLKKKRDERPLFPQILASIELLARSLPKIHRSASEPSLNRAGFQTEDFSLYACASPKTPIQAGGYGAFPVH
SMILES,IC50 [1] [µM],inhibition at 10 µM [%],"inhibition at 10 µM (single point assay, 10 uM) [%]",IC50 [µM],"% Inhib./10 uM (single point assay, 10 uM) [%]"
"CC(C)(C)OC(=O)N1CCN(c2cc3nccc(-c4cccc(NC(=O)c5cccc(C(F)(F)F)c5)c4)n3n2)CC1 [Example 206, tert-butyl 4-[7-(3-{[3-(trifluoromethyl)benzoyl]amino}phenyl)pyrazolo[1,5-a]pyrimidin-2-yl]piperazine-1-carboxylate]",> 10,18,,,
"O=C(Nc1cccc(-c2ccnc3cc(N4CCN(Cc5ccccc5)CC4)nn23)c1)c1cccc(C(F)(F)F)c1 [Example 207, N-{3-[2-(4-benzylpiperazin-1-yl)pyrazolo[1,5-a]pyrimidin-7-yl]phenyl}-3-(trifluoromethyl)benzamide]",> 10,0,,,
"O=C(Nc1cccc(-c2ccnc3cc(N4CCNCC4)nn23)c1)c1cccc(C(F)(F)F)c1 [Example 208, N-[3-(2-piperazin-1-ylpyrazolo[1,5-a]pyrimidin-7-yl)phenyl]-3-(trifluoromethyl)benzamide]",,,,6.15,54
"CN(C)C1CCN(c2cc3nccc(-c4cccc(NC(=O)c5cccc(C(F)(F)F)c5)c4)n3n2)C1 (stereo not drawn) [Example 209, N-(3-{2-[3-(dimethylamino)pyrrolidin-1-yl]pyrazolo[1,5-a]pyrimidin-7-yl}phenyl)-3-(trifluoromethyl)benzamide]",> 10,24,,,
"COC[C@H]1CCCN1c1cc2nccc(-c3cccc(NC(=O)c4cccc(C(F)(F)F)c4)c3)n2n1 [Example 210, N-(3-{2-[(2R)-2-(methoxymethyl)pyrrolidin-1-yl]pyrazolo[1,5-a]pyrimidin-7-yl}phenyl)-3-(trifluoromethyl)benzamide]",2.5,52,,,
"O=C(Nc1cccc(-c2ccnc3cc(N4CCC[C@H]4CN4CCCC4)nn23)c1)c1cccc(C(F)(F)F)c1 [Example 211, N-(3-{2-[(2S)-2-(pyrrolidin-1-ylmethyl)pyrrolidin-1-yl]pyrazolo[1,5-a]pyrimidin-7-yl}phenyl)-3-(trifluoromethyl)benzamide]",> 10,47,,,
"CC(C)(C)OC(=O)NC1CCN(c2cc3nccc(-c4cccc(NC(=O)c5cccc(C(F)(F)F)c5)c4)n3n2)C1 (stereo not drawn) [Example 212, tert-butyl {1-[7-(3-{[3-(trifluoromethyl)benzoyl]amino}phenyl)pyrazolo[1,5-a]pyrimidin-2-yl]pyrrolidin-3-yl}carbamate]",> 10,22,,,
"NC1CCN(c2cc3nccc(-c4cccc(NC(=O)c5cccc(C(F)(F)F)c5)c4)n3n2)C1 (stereo not drawn) [Example 213, N-{3-[2-(3-aminopyrrolidin-1-yl)pyrazolo[1,5-a]pyrimidin-7-yl]phenyl}-3-(trifluoromethyl)benzamide]",> 10,40,,,
"COCC(=O)Nc1ccc(-c2cnn3c(-c4cccc(NC(=O)c5cccc(C(F)(F)F)c5)c4)ccnc23)cc1 [Example 229, N-[3-(3-{4-[(methoxyacetyl)amino]phenyl}pyrazolo[1,5-a]pyrimidin-7-yl)phenyl]-3-(trifluoromethyl)benzamide]",0.118,83,,,
"CN(C)CC(=O)Nc1ccc(-c2cnn3c(-c4cccc(NC(=O)c5cccc(C(F)(F)F)c5)c4)ccnc23)cc1 [Example 230, N-[3-(3-{4-[(N,N-dimethylglycyl)amino]phenyl}pyrazolo[1,5-a]pyrimidin-7-yl)phenyl]-3-(trifluoromethyl)benzamide]",0.049,,93,,
"COCCC(=O)Nc1ccc(-c2cnn3c(-c4cccc(NC(=O)c5cccc(C(F)(F)F)c5)c4)ccnc23)cc1 [Example 231, N-[3-(3-{4-[(3-methoxypropanoyl)amino]phenyl}pyrazolo[1,5-a]pyrimidin-7-yl)phenyl]-3-(trifluoromethyl)benzamide]",0.246,80,,,
"O=C(Cc1c[nH]cn1)Nc1ccc(-c2cnn3c(-c4cccc(NC(=O)c5cccc(C(F)(F)F)c5)c4)ccnc23)cc1 [Example 232, N-[3-(3-{4-[(1H-imidazol-4-ylacetyl)amino]phenyl}pyrazolo[1,5-a]pyrimidin-7-yl)phenyl]-3-(trifluoromethyl)benzamide]",0.174,99,,,
"O=C(Cc1nnn[nH]1)Nc1ccc(-c2cnn3c(-c4cccc(NC(=O)c5cccc(C(F)(F)F)c5)c4)ccnc23)cc1 [Example 233, N-[3-(3-{4-[(1H-tetrazol-5-ylacetyl)amino]phenyl}pyrazolo[1,5-a]pyrimidin-7-yl)phenyl]-3-(trifluoromethyl)benzamide]",1,96,,,
"CN(C)CCCC(=O)Nc1ccc(-c2cnn3c(-c4cccc(NC(=O)c5cccc(C(F)(F)F)c5)c4)ccnc23)cc1 [Example 234, N-{3-[3-(4-{[4-(dimethylamino)butanoyl]amino}phenyl)pyrazolo[1,5-a]pyrimidin-7-yl]phenyl}-3-(trifluoromethyl)benzamide]",0.019,96,,,

# Second part, led by results:
IC50 [1] [µM],inhibition at 10 µM [%],"inhibition at 10 µM (single point assay, 10 uM) [%]",SMILES,IC50 [µM],"% Inhib./10 uM (single point assay, 10 uM) [%]"
1.73,81,,"CN(C)CC#Cc1cnn2c(-c3cccc(NC(=O)c4cccc(C(F)(F)F)c4)c3)ccnc12 [Example 205, N-(3-{3-[3-(dimethylamino)prop-1-yn-1-yl]pyrazolo[1,5-a]pyrimidin-7-yl}phenyl)-3-(trifluoromethyl)benzamide]",,
> 10,8,,"CCOC(=O)c1cnn2c(-c3cccc(NC(=O)c4cnccn4)c3)ccnc12 [Example 214, ethyl7-{3-[(pyrazin-2-ylcarbonyl)amino]phenyl}pyrazolo[1,5-a]pyrimidine-3-carboxylate]",,
> 10,0,,"CCOC(=O)c1cnn2c(-c3cccc(NC(=O)c4cccn4C)c3)ccnc12 [Example 215, ethyl7-(3-{[(1-methyl-1H-pyrrol-2-yl)carbonyl]amino}phenyl)pyrazolo[1,5-a]pyrimidine-3-carboxylate]",,
> 10,3,,"CCOC(=O)c1cnn2c(-c3cccc(NC(=O)c4cnc(C)cn4)c3)ccnc12 [Example 216, Ethyl7-(3-{[(5-methylpyrazin-2-yl)carbonyl]amino}phenyl)pyrazolo[1,5-a]pyrimidine-3-carboxylate]",,
> 10,34,,"CCOC(=O)c1cnn2c(-c3cccc(NC(=O)c4cc(Cl)ccn4)c3)ccnc12 [Example 217, ethyl7-(3-{[(4-chloropyridin-2-yl)carbonyl]amino}phenyl)pyrazolo[1,5-a]pyrimidine-3-carboxylate]",,
4.49,73,,"CCOC(=O)c1cnn2c(-c3cccc(NC(=O)c4nccc5ccccc45)c3)ccnc12 [Example 218, ethyl7-{3-[(isoquinolin-1-ylcarbonyl)amino]phenyl}pyrazolo[1,5-a]pyrimidine-3-carboxylate]",,
> 10,12,,"CCOC(=O)c1cnn2c(-c3cccc(NC(=O)c4cc5ccccc5n4C)c3)ccnc12 [Example 219, ethyl 7-(3-{[(1-methyl-1H-indol-2-yl)carbonyl]amino}phenyl)pyrazolo[1,5-a]pyrimidine-3-carboxylate]",,
> 10,30,,"CCOC(=O)c1cnn2c(-c3cccc(NC(=O)c4nn(-c5ccccc5)nc4C)c3)ccnc12 [Example 220, ethyl7-(3-{[(5-methyl-2-phenyl-2H-1,2,3-triazol-4-yl)carbonyl]amino}phenyl)pyrazolo[1,5-a]pyrimidine-3-carboxylate]",,
9.7,65,,"CCOC(=O)c1cnn2c(-c3cccc(NC(=O)c4ccc(C)s4)c3)ccnc12 [Example 221, ethyl7-(3-{[(5-methyl-2-thienyl)carbonyl]amino}phenyl)pyrazolo[1,5-a]pyrimidine-3-carboxylate]",,
> 10,43,,"CCOC(=O)c1cnn2c(-c3cccc(NC(=O)c4ccc(Cl)s4)c3)ccnc12 [Example 222, ethyl 7-(3-{[(5-chloro-2-thienyl)carbonyl]amino}phenyl)pyrazolo[1,5-a]pyrimidine-3-carboxylate]",,
> 10,47,,"CCOC(=O)c1cnn2c(-c3cccc(NC(=O)c4ccc(Br)s4)c3)ccnc12 [Example 223, ethyl7-(3-{[(5-bromo-2-thienyl)carbonyl]amino}phenyl)pyrazolo[1,5-a]pyrimidine-3-carboxylate]",,
> 10,39,,"CCOC(=O)c1cnn2c(-c3cccc(NC(=O)c4ccc(-c5cc(C(F)(F)F)nn5C)s4)c3)ccnc12 [Example 224, ethyl7-{3-[({5-[1-methyl-3-(trifluoromethyl)-1H-pyrazol-5-yl]-2-thienyl}carbonyl)amino]phenyl}pyrazolo[1,5-a]pyrimidine-3-carboxylate]",,
> 10,7,,"CCOC(=O)c1cnn2c(-c3cccc(NC(=O)CC(C)(C)C)c3)ccnc12 [Example 225, ethyl7-{3-[(3,3-dimethylbutanoyl)amino]phenyl}pyrazolo[1,5-a]pyrimidine-3-carboxylate]",,
> 10,43,,"CCOC(=O)c1cnn2c(-c3cccc(NC(=O)CC(C)CC(C)(C)C)c3)ccnc12 (stereo not drawn) [Example 226, ethyl7-{3-[(3,5,5-trimethylhexanoyl)amino]phenyl}pyrazolo[1,5-a]pyrimidine-3-carboxylate]",,
1.6,54,,"CCOC(=O)c1cnn2c(-c3cccc(NC(=O)c4cc(C(C)(C)C)cc(C(C)(C)C)c4)c3)ccnc12 [Example 227, ethyl7-{3-[(3,5-di-tert-butylbenzoyl)amino]phenyl}pyrazolo[1,5-a]pyrimidine-3-carboxylate]",,
> 10,7,,"CCOC(=O)c1cnn2c(-c3cccc(NC(=O)c4cc(Cl)ccc4Br)c3)ccnc12 [Example 228, ethyl7-{3-[(2-bromo-5-chlorobenzoyl)amino]phenyl}pyrazolo[1,5-a]pyrimidine-3-carboxylate]",,
